We go through three compounds from patent US4634782A, “7-fluoro-dihydro PGI compounds” (Hoffmann-La Roche Inc., priority 1985, dated 1987).

The subject of assay [1] is human platelet rich plasma (PRP). Nature of the assay: Inhibition of blood platelet aggregation in human platelet rich plasma (PRP), test of Professor Born, optical density. The assay is classed as cell-based. To be noted: 0.45 ml human PRP, two separate tests, two donors. How it is done:
That the 7-fluoro prostacyclins are potent blood platelet anti-aggregating agents can be seen when the following compounds:
were tested against PGI2 for their blood platelet anti-aggregation properties by the standard test described by Professor Born in Nature, 194 927, (1962).
In this test, the ability of the above compounds to inhibit aggregation of blood platelets in 0.45 ml of human platelet rich plasma (PRP) was measured. Aggregation was induced by the addition of any one of arachidonic acid (AA), platelet activating factor (PAF) or collagen. PAF and its synthesis is disclosed by Hirth and Barner in Helv. Chim. Acta. Vol. 65; Fasc. 3, page 1059 (1982) [Compound 1-a on page 1061]. By titration of AA, collagen and PAF at various concentrations in 0.45 ml samples of PRP, the minimum amount of AA, collagen and PAF which produces maximum blood platelet aggregation in a given sample of human platelet rich plasma (PRP) was determined. This minimum amount was used when the compounds set forth above were tested for their ability to inhibit blood platelet aggregation in samples of PRP as described below.
In carrying out the tests, various concentrations of the test compound were added to separate samples of human platelet rich plasma (PRP). To each of these samples of PRP containing a specific concentration of one of the above test compounds, there was added the minimum amount of AA, PAF, or collagen calculated above. The controls are samples of PRP containing no test compound but only the minimum amount of AA, PAF, or collagen determined above. The percent aggregation of the various samples was determined by measuring the optical density of the samples and comparing them with the optical density of the controls. This determination was made two minutes after the maximum first phase response of PAF, AA or collagen. This determination was made with freshly prepared samples of test compounds. A second determination was made in the same manner with samples of PRP two hours after the addition of AA, PAF or collagen. The IC50, the dose at which the optical density of the samples decrease to a value which is fifty (50%) percent of the value of the control was determined by the method disclosed by Professor Born's article. The IC50 values for the minimum dose were made from concentration response curve. These IC50 's were determined in two separate tests using PRP from two separate donors. The results of the minimum dose of each of the test compounds which reduces fifty (50%) percent of the aggregation of the platelets produced by any one of AA, PAF, or collagen is set forth in the following Table: […]

Assay [2] concerns cyclic AMP in human platelet rich plasma (PRP). The experiment in a line: Cyclic AMP production in human blood platelets (platelet rich plasma), protein binding method of Brown et al. It counts as cell-based. As to conditions: 0.1 mM, percent increase in cyclic AMP compared to basal (vehicle alone), pH 7.4, 22 C, read-out: Cyclic AMP Production, o/o stimulative of Basal at 0.1 mM. The protocol:
Cyclic AMP prevents aggregation of blood platelets. Through increasing cyclic AMP, the compounds of this invention prevent blood platelet aggregation. That the compounds of this invention increase cyclic AMP can be seen from the following test.
In this test, human platelet rich plasma (PRP) was prepared by centrifugation of blood treated with 0.38% by weight sodium citrate at 180×g (times gravity) for ten minutes. The PRP ([…] containing approximately 2×10^7 platelets) is incubated for two minutes at 22 C, with and without the test compound, in a Tris-HCl buffer for ten minutes pH 7.4 containing 5.5 mM HCl, 1 mM Mg SO4, 5 mM Na2 H PO4, 120 mM NaCl, and 5.5 mM glucose in a fluid volume of […]. The reaction was terminated by placing the samples in boiling water for 3 minutes. The boiled extract was assayed for cyclic AMP by the protein binding method of Brown et al. (Biochemical Journal 121:561-562, 1971). The activity of this test compound at 0.1 mM is measured as the percent increase in cyclic AMP production compared to base 1 (vehicle alone) production.

Setting [3] is: Platelet, aggregation induced by minimum amount of arachidonic acid (AA), read-out: Aggregation IC50, AA.
[4] abbreviates: Platelet, aggregation induced by minimum amount of collagen, read-out: Aggregation IC50, Collagen.
The mark [5] stands for this setting: aggregation induced by minimum amount of platelet activating factor (PAF), read-out: Aggregation IC50, PAF.

Molecules are shown by their SMILES. Where a name gives a salt, the structure may show the parent alone. Read-outs that look alike come from different tables or passages of the source.

A word on the IC50: it is the midpoint of a concentration-inhibition curve. As to `CCCC[C@H](F)[C@H](O)CC[C@@H]1[C@@H]2[C@H](C[C@H]1O)O/C(=C\CCCC(=O)O)[C@H]2F` [Compound B, (5Z,7beta,9alpha,11alpha,15R,16S)-6,9-epoxy-7,16-difluoro-11,15-dihydroxy-prost-5-en-1-oic acid monosodium salt], the IC50 came out at 20 nM in assay [1] (setting [3]), 6 nM in assay [1] (setting [4]) and 6 nM in assay [1] (setting [5]).

Turning to `CCCCC[C@H](O)CC[C@@H]1[C@@H]2[C@H](C[C@H]1O)O/C(=C\CCCC(=O)O)[C@H]2F` [Compound A, (5Z,7beta,9alpha,11alpha,15S)-6,9-epoxy-7-fluoro-11,15-dihydroxy-prost-5-en-1-oic acid monosodium salt], the activation at 100 µM in assay [2] was determined as 998%. In addition, the concentration for half-maximal inhibition (IC50) came to 23 nM in assay [1] (setting [3]) and 15 nM in assay [1] (setting [5]).

Consider `CCCCC[C@H](O)/C=C/[C@@H]1[C@H]2C/C(=C/CCCC(=O)O)O[C@H]2C[C@H]1O` [PGI2, reference compound], for which the values for the IC50 in assay [1] (setting [3]), in assay [1] (setting [4]) and in assay [1] (setting [5]) were 0.45 nM, 2 nM and 0.15 nM, respectively.
